The text below walks through data of patent US10487116B2, “Immunotherapy against several tumors, such as lung cancer, including NSCLC” (IMMATICS BIOTECHNOLOGIES GMBH, priority 2013, dated 2019).

The assay concerns CD8+ T cells. The assay can be described thus: In vitro T-cell priming assay (aAPCs loaded with peptide/MHC and anti-CD28, pMHC multimer readout). The assay is classed as cell-based, human. Particulars: for Wells: positive wells. The source says:
In order to obtain information regarding the immunogenicity of the TUMAPs of the present invention, we performed investigations using an in vitro T-cell priming assay based on repeated stimulations of CD8+ T cells with artificial antigen presenting cells (aAPCs) loaded with peptide/MHC complexes and anti-CD28 antibody.
In order to perform in vitro stimulations by artificial antigen presenting cells loaded with peptide-MHC complex (pMHC) and anti-CD28 antibody, we first isolated CD8+ T cells from fresh HLA-A*02 leukapheresis products via positive selection using CD8 microbeads (Miltenyi Biotec, Bergisch-Gladbach, Germany) of healthy donors obtained from the Transfusion Medicine Tuebingen, Germany, after informed consent.
Isolated CD8+ lymphocytes or PBMCs were incubated until use in T-cell medium (TCM) consisting of RPMI-Glutamax (Invitrogen, Karlsruhe, Germany) supplemented with 10% heat inactivated human AB serum (PAN-Biotech, Aidenbach, Germany), 100 U/ml Penicillin/100 μg/ml Streptomycin (Cambrex, Cologne, Germany), 1 mM sodium pyruvate (CC Pro, Oberdorla, Germany), 20 μg/ml Gentamycin (Cambrex). 2.5 ng/ml IL-7 (PromoCell, Heidelberg, Germany) and 10 U/ml IL-2 (Novartis Pharma, Nurnberg, Germany) were also added to the TCM at this step.
Generation of pMHC/anti-CD28 coated beads, T-cell stimulations and readout was performed in a highly defined in vitro system using four different pMHC molecules per stimulation condition and 8 different pMHC molecules per readout condition.
All pMHC complexes used for aAPC loading and cytometric readout were derived from UV-induced MHC ligand exchange (Rodenko et al., 2006) with minor modifications. In order to determine the amount of pMHC monomer obtained by exchange we performed streptavidin-based sandwich ELISAs according to (Rodenko et al., 2006).
The purified co-stimulatory mouse IgG2a anti human CD28 Ab 9.3 (Jung et al., 1987) was chemically biotinylated using Sulfo-N-hydroxysuccinimidobiotin as recommended by the manufacturer (Perbio, Bonn, Germany). Beads used were 5.6 μm diameter streptavidin coated polystyrene particles (Bangs Laboratories, Ill., USA).
pMHC used for positive and negative control stimulations were A*0201/MLA-001 (peptide […] from modified Melan-A/MART-1) and A*0201/DDX5-001 ([…] from DDX5), respectively.
800.000 beads/200 μl were coated in 96-well plates in the presence of 4×12.5 ng different biotin-pMHC, washed and 600 ng biotin anti-CD28 were added subsequently in a volume of 200 μl. Stimulations were initiated in 96-well plates by co-incubating 1×10^6 CD8+ T cells with 2×10^5 washed coated beads in 200 μl TCM supplemented with 5 ng/ml IL-12 (PromoCell) for 3-4 days at 37° C. Half of the medium was then exchanged by fresh TCM supplemented with 80 U/ml IL-2 and incubating was continued for 3-4 days at 37° C. This stimulation cycle was performed for a total of three times. For the pMHC multimer readout using 8 different pMHC molecules per condition, a two-dimensional combinatorial coding approach was used as previously described (Andersen et al., 2012) with minor modifications encompassing coupling to 5 different fluorochromes. Finally, multimeric analyses were performed by staining the cells with Live/dead near IR dye (Invitrogen, Karlsruhe, Germany), CD8-FITC antibody clone SK1 (BD, Heidelberg, Germany) and fluorescent pMHC multimers. For analysis, a BD LSRII SORP cytometer equipped with appropriate lasers and filters was used. Peptide specific cells were calculated as percentage of total CD8+ cells. Evaluation of multimeric analysis was done using the FlowJo software (Tree Star, Oreg., USA). In vitro priming of specific multimer+CD8+ lymphocytes was detected by comparing to negative control stimulations.

[1] abbreviates: in vitro immunogenicity, trifluoro-acetate salts of the peptides.
The mark [2] stands for this setting: in vitro immunogenicity, responding healthy donors, trifluoro-acetate salts of the peptides.

Read-outs that look alike come from different tables or passages of the source.

On to “31 (AIDGNNHEV; listed as Homo sapiens) [compound 31]”, for which the Wells result under setting [1] is listed as “+ (<20% = +)”. The Donors result under setting [2] is recorded as “+++ (50%-70%, +++)”.
For “10 (VLSVVEVTL; listed as Homo sapiens) [compound 10]”, in that order: “+ (<20% = +)” and “++ (20%-49% = ++)”.
For “69 (AMSSKFFLV; listed as Homo sapiens) [compound 69]”, the Wells result under setting [1] is on record as “++ (20%-49% = ++)”. Further, the Donors result under setting [2] is on record as “+++ (50%-70%, +++)”.
Consider “15 (KLAVALLAA; listed as Homo sapiens) [compound 15]”, for which the Wells entry under setting [1] is listed as “++ (20%-49% = ++)”. For the same substance, under setting [2], the Donors entry is “++ (20%-49% = ++)”.
Turning to “47 (GVLENIFGV; listed as Homo sapiens) [compound 47]”, under setting [1], the Wells entry is reported as “+ (<20% = +)”. Besides, the Donors entry under setting [2] was “++ (20%-49% = ++)”.
As for “38 (SLHFLILYV; listed as Homo sapiens) [compound 38]”, under setting [1], the Wells entry is recorded as “+ (<20% = +)”. Further, the Donors entry under setting [2] is given as “++ (20%-49% = ++)”.
Regarding “57 (GLAEDIDKGEV; listed as Homo sapiens) [compound 57]”, under setting [1], the Wells result was “+ (<20% = +)”. In addition, the Donors entry under setting [2] is “++ (20%-49% = ++)”.
For the substance “65 (KVLEILHRV; listed as Homo sapiens) [compound 65]”, under setting [1], the Wells entry is “++ (20%-49% = ++)”. Further, the Donors entry under setting [2] is recorded as “+++ (50%-70%, +++)”.
For the substance “61 (TLISRLPAV; listed as Homo sapiens) [compound 61]”, the Wells result under setting [1] is reported as “+ (<20% = +)”. Besides, under setting [2], the Donors entry is given as “+++ (50%-70%, +++)”.
Turning to “52 (ALLERGYSL; listed as Homo sapiens) [compound 52]”, the Wells result under setting [1] is given as “+ (<20% = +)”. Under setting [2], the Donors result is “+ (<20% = +)”.
As to “42 (SLWGGDVVL; listed as Homo sapiens) [compound 42]”, the Donors was determined as 100%. Besides, under setting [1], the Wells entry is reported as “++ (20%-49% = ++)”. Besides, the Donors entry under setting [2] is listed as “++++ (>70 = ++++)”.
As to “7 (TLWYRAPEV; listed as Homo sapiens) [compound 7]”, the Wells result under setting [1] is on record as “++ (20%-49% = ++)”. The Donors entry under setting [2] was “++++ (>70 = ++++)”.
As to “43 (ALFPHLLQPV; listed as Homo sapiens) [compound 43]”, under setting [1], the Wells result is listed as “+ (<20% = +)”. Also, the Donors entry under setting [2] is listed as “+++ (50%-70%, +++)”.
For “4 (NLIEKSIYL; listed as Homo sapiens) [compound 4]”, in that order: “+ (<20% = +)” and “++ (20%-49% = ++)”.
For “9 (ALMDKEGLTAL; listed as Homo sapiens) [compound 9]”, in that order: “+ (<20% = +)” and “+ (<20% = +)”.
Consider “67 (ILQDRLNQV; listed as Homo sapiens) [compound 67]”, for which the Wells entry under setting [1] is given as “+ (<20% = +)”. In addition, the Donors entry under setting [2] is on record as “++ (20%-49% = ++)”.
On to “55 (SLADFMQEV; listed as Homo sapiens) [compound 55]”, for which, under setting [1], the Wells entry is recorded as “+ (<20% = +)”. Further, the Donors entry under setting [2] is “++ (20%-49% = ++)”.
The matching figures for “86 (AMATESILHFA; listed as Homo sapiens) [compound 86]”: “+ (<20% = +)” and “++ (20%-49% = ++)”.
Regarding “18 (TLYPHTSQV; listed as Homo sapiens) [compound 18]”, the Wells entry under setting [1] was “+ (<20% = +)”. Also, under setting [2], the Donors entry is “+++ (50%-70%, +++)”.
In the case of “87 (RVLPPSALQSV; listed as Homo sapiens) [compound 87]”, the Wells result under setting [1] is listed as “+ (<20% = +)”. For the same substance, under setting [2], the Donors entry is “+++ (50%-70%, +++)”.
For “74 (SLLAQNTSWLL; listed as Homo sapiens) [compound 74]”, the Wells result under setting [1] is “+ (<20% = +)”. The Donors entry under setting [2] was “+++ (50%-70%, +++)”.
Regarding “60 (VVDKTLLLV; listed as Homo sapiens) [compound 60]”, the Donors came out at 100%. In addition, the Wells result under setting [1] is “+++ (50%-70%, +++)”. Besides, the Donors entry under setting [2] is on record as “++++ (>70 = ++++)”.
Turning to “46 (TLTNIIHNL; listed as Homo sapiens) [compound 46]”, the Wells entry under setting [1] is given as “+ (<20% = +)”. Further, the Donors entry under setting [2] is on record as “+++ (50%-70%, +++)”.
The matching figures for “85 (KIVDFSYSV; listed as Homo sapiens) [compound 85]”: “++ (20%-49% = ++)” and “++++ (>70 = ++++)”.
With “3 (ALDENLHQL; listed as Homo sapiens) [compound 3]”, the Wells result under setting [1] was “+ (<20% = +)”. Moreover, the Donors entry under setting [2] is “++ (20%-49% = ++)”.
With “24 (FLVDGSWSV; listed as Homo sapiens) [compound 24]”, the Wells result under setting [1] is listed as “+ (<20% = +)”. The Donors result under setting [2] is given as “++ (20%-49% = ++)”.
Take “37 (VLAPLFVYL; listed as Homo sapiens) [compound 37]”: the Donors was 100%. Further, the Wells result under setting [1] is reported as “+ (<20% = +)”. For the same substance, under setting [2], the Donors entry is recorded as “++++ (>70 = ++++)”.
Regarding “11 (VLLPVEVATHYL; listed as Homo sapiens) [compound 11]”, the Donors is listed as 100%. Also, the Wells entry under setting [1] is “++ (20%-49% = ++)”. For the same substance, under setting [2], the Donors entry is recorded as “++++ (>70 = ++++)”.
Consider “39 (RLLDSVSRL; listed as Homo sapiens) [compound 39]”, for which, under setting [1], the Wells result is given as “+ (<20% = +)”. Further, under setting [2], the Donors result is “++ (20%-49% = ++)”.
As to “64 (AMLAVLHTV; listed as Homo sapiens) [compound 64]”, the Wells result under setting [1] is given as “+ (<20% = +)”. For the same substance, under setting [2], the Donors entry is “+++ (50%-70%, +++)”.
As to “54 (KLVEFDFLGA; listed as Homo sapiens) [compound 54]”, the Wells result under setting [1] was “+ (<20% = +)”. Further, under setting [2], the Donors entry was “++ (20%-49% = ++)”.
Take “48 (GLIEIISNA; listed as Homo sapiens) [compound 48]”: under setting [1], the Wells result is recorded as “+ (<20% = +)”. For the same substance, under setting [2], the Donors result is recorded as “+ (<20% = +)”.
On to “53 (YLPHAPPFA; listed as Homo sapiens) [compound 53]”, for which the Wells result under setting [1] is “++ (20%-49% = ++)”. Further, the Donors entry under setting [2] is “++ (20%-49% = ++)”.
“59 (ILVSWLPRL; listed as Homo sapiens) [compound 59]”: the Wells entry under setting [1] is listed as “+ (<20% = +)”. Further, the Donors entry under setting [2] is given as “+++ (50%-70%, +++)”.
Consider “44 (NLLAEIHGV; listed as Homo sapiens) [compound 44]”, for which the Wells entry under setting [1] is “+ (<20% = +)”. Besides, under setting [2], the Donors entry is recorded as “++ (20%-49% = ++)”.
In the case of “68 (YVYQNNIYL; listed as Homo sapiens) [compound 68]”, the Wells result under setting [1] is given as “+ (<20% = +)”. Besides, the Donors entry under setting [2] was “+ (<20% = +)”.
As to “2 (KIQEMQHFL; listed as Homo sapiens) [compound 2]”, the Wells entry under setting [1] was “+ (<20% = +)”. Under setting [2], the Donors entry was “++ (20%-49% = ++)”.
For “81 (ALYGRLEVV; listed as Homo sapiens) [compound 81]”, the Wells entry under setting [1] is reported as “+ (<20% = +)”. The Donors entry under setting [2] was “++ (20%-49% = ++)”.
Turning to “35 (VLFPNLKTV; listed as Homo sapiens) [compound 35]”, the Wells entry under setting [1] was “+ (<20% = +)”. Also, the Donors result under setting [2] is given as “++ (20%-49% = ++)”.
Regarding “79 (SLAPAGVIRV; listed as Homo sapiens) [compound 79]”, the Wells entry under setting [1] is recorded as “+ (<20% = +)”. The Donors entry under setting [2] is given as “++++ (>70 = ++++)”.
The matching figures for “75 (ALYDSVILL; listed as Homo sapiens) [compound 75]”: “+ (<20% = +)” and “++ (20%-49% = ++)”.
For “63 (SLAGDVALQQL; listed as Homo sapiens) [compound 63]”, in that order: “+ (<20% = +)” and “++ (20%-49% = ++)”.
